In PMC6211316, “Synthesis and biological evaluation of 3-arylcoumarin derivatives as potential anti-diabetic agents” (Journal of Enzyme Inhibition and Medicinal Chemistry, 2018):

test system: not listed separately; test: Oral toxicity to mice (Lorke's method); conditions: both sexes, mouse, in vivo, Kunming mice, observed 14 days
Protocol: With reference to Lorke’s method, kunming mice were used as targets to estimate the oral toxicity of each compound to mice. We select compounds 11, 17, 25, 28, and 35 at concentrations of 10, 100, and 1000 mg/kg to test their oral toxicity in the first phase, and 1600, 2900, and 5000 mg/kg at the second phase.
Experiments were performed on Kunming mice (male and female half, bw range, 25–30 g). Mice were housed in a climate and light controlled room with a 12 h light/dark cycle. Twelve hours before experiments, food was withheld, but animals had free access to drinking water. The compounds were suspended in vehicle (Tween-80, 0.2% in saline). The concentrations were adjusted to orally administrate 0.2 ml/10 g of bw. Mice were treated in two phases. In the first, intragastric doses of 10, 100 and 1000 mg/kg of bw of compounds were administered. On the second, the doses were adjusted to 1600, 2900, and 5000 mg/kg of bw of compounds. In both phases, mice were observed daily in a period of 14 days for mortality, toxic effects and/or changes in behavioural pattern. At the end of the experiments, the mice were sacrificed in a CO2 chamber.

Compound	LD50 at 14 days
O=c1oc2ccc(O)cc2cc1-c1ccc(O)cc1 [Compound 17, 6-Hydroxy-3-(4-hydroxyphenyl)-coumarin]	> 5000 mg/kg
COc1ccc(-c2cc3c(O)cc(O)cc3oc2=O)cc1 [Compound 35, 5,7-Dihydroxy-3-(4-methoxyphenyl)-coumarin]	> 5000 mg/kg

test system: AGEs formation; test: In vitro inhibitory activity of AGEs formation (bovine serum albumin/glucose); type: biochemical; conditions: mean ± SD (n = 3)
How it was run: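 Bovine serum albumin (10 mg/mL) with 0.2 M glucose in 50 mM PBS, pH 7.4, plus 0.02% sodium azide, was mixed with compound solutions (0.5–1000 μg/mL in DMSO) and held 14 d at 37 °C. AGE fluorescence was read at ex 350/em 420 nm in triplicate. Inhibition was corrected with glucose-free blanks, and IC50 calculated.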

Compound	IC50
O=c1oc2ccc(O)cc2cc1-c1ccc(O)cc1 [Compound 17, 6-Hydroxy-3-(4-hydroxyphenyl)-coumarin]	24.68 ± 0.12 µM
COc1ccc(-c2cc3c(O)cc(O)cc3oc2=O)cc1 [Compound 35, 5,7-Dihydroxy-3-(4-methoxyphenyl)-coumarin]	5.21 ± 0.07 µM

target: T1, α-Glucosidase (Saccharomyces cerevisiae, UniProt P53341); test: biochemical; type: biochemical; conditions: in vitro
T1 construct: purchased Sigma Aldrich G0660-750UN
T1 sequence (P53341 whole entry): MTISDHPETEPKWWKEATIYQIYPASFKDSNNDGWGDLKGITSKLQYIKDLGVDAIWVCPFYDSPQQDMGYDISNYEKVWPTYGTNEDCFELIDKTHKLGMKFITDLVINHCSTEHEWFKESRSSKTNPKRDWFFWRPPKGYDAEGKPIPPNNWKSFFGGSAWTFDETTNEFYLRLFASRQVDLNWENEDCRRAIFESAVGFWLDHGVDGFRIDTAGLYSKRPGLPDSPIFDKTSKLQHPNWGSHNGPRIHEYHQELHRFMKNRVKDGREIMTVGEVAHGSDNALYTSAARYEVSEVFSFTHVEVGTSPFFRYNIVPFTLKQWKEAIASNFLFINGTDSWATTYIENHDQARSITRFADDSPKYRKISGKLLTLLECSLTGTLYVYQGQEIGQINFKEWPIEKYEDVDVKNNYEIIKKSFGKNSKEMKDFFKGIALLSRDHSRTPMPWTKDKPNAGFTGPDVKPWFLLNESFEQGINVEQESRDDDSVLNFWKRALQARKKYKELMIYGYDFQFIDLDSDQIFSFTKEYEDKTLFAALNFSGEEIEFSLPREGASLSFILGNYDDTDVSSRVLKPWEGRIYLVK
How it was run: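 Yeast α-glucosidase and PNPG substrate in 100 mM phosphate buffer, pH 6.8, with DMSO-dissolved compounds were preincubated 10 min at 37 °C, then reacted 20 min at 37 °C after enzyme addition. Na2CO3 stopped the reaction; p-nitrophenol was read at 405 nm. Blank-corrected % inhibition and IC50 came from triplicates.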

Compound	α-glucosidase inhibitory activity (in words)
O=c1oc2ccc(O)cc2cc1-c1ccc(O)cc1 [Compound 17, 6-Hydroxy-3-(4-hydroxyphenyl)-coumarin]	moderate to excellent inhibitory activity
COc1ccc(-c2cc3c(O)cc(O)cc3oc2=O)cc1 [Compound 35, 5,7-Dihydroxy-3-(4-methoxyphenyl)-coumarin]	moderate to excellent inhibitory activity

same assay, conditions: mean ± SD (n = 3); read-out: α-Glucosidase inhibitory activity IC50 Value

Compound	IC50
O=c1oc2ccc(O)cc2cc1-c1ccc(O)cc1 [Compound 17, 6-Hydroxy-3-(4-hydroxyphenyl)-coumarin]	11.5 ± 1.3 µM
COc1ccc(-c2cc3c(O)cc(O)cc3oc2=O)cc1 [Compound 35, 5,7-Dihydroxy-3-(4-methoxyphenyl)-coumarin]	10.8 ± 0.63 µM

test system: normal mice; test: Acute hypoglycemic assay in normal mice; type: in vivo; conditions: 10 mg/kg of bw per os, 0h
Protocol: STZ-induced diabetic mice and normal mice were placed in single cages with wire-net floors and deprived of food for 12 h before experimentation but allowed free access to tap water throughout. The compounds (at the doses of 10, 30, and 100 mg/kg of bw) were suspended in 0.05% Tween-80 in saline solution. Glibenclamide (10 mg/kg of bw) was suspended in the same vehicle. The target compounds were freshly prepared immediately before experimentation and administered by the intragastrical route at the doses of 10 ml/kg of bw. Control mice received only the vehicle (0.05% Tween-80 in saline solution) by the same route. Blood glucose levels were measured at 0, 1.5, 3, 5, 7, and 9 h after drugs administration.

Compound	Blood glucose concentration
O=c1oc2ccc(O)cc2cc1-c1ccc(O)cc1 [Compound 17, 6-Hydroxy-3-(4-hydroxyphenyl)-coumarin]	10.6 ± 0.4 mM
COc1ccc(-c2cc3c(O)cc(O)cc3oc2=O)cc1 [Compound 35, 5,7-Dihydroxy-3-(4-methoxyphenyl)-coumarin]	10.8 ± 0.6 mM

same assay, conditions: 10 mg/kg of bw per os, 1.5h

Compound	% Variation of glycemia	Blood glucose concentration
O=c1oc2ccc(O)cc2cc1-c1ccc(O)cc1 [Compound 17, 6-Hydroxy-3-(4-hydroxyphenyl)-coumarin]	(−23.96) %	7.9 ± 0.7 mM
COc1ccc(-c2cc3c(O)cc(O)cc3oc2=O)cc1 [Compound 35, 5,7-Dihydroxy-3-(4-methoxyphenyl)-coumarin]	(−14.55) %	9.2 ± 0.6 mM

same assay, conditions: 10 mg/kg of bw per os, 3h

Compound	% Variation of glycemia	Blood glucose concentration
O=c1oc2ccc(O)cc2cc1-c1ccc(O)cc1 [Compound 17, 6-Hydroxy-3-(4-hydroxyphenyl)-coumarin]	(−34.19) %	6.9 ± 0.8 mM
COc1ccc(-c2cc3c(O)cc(O)cc3oc2=O)cc1 [Compound 35, 5,7-Dihydroxy-3-(4-methoxyphenyl)-coumarin]	(−24.15) %	8.2 ± 0.5 mM

same assay, conditions: 10 mg/kg of bw per os, 5h

Compound	% Variation of glycemia	Blood glucose concentration
O=c1oc2ccc(O)cc2cc1-c1ccc(O)cc1 [Compound 17, 6-Hydroxy-3-(4-hydroxyphenyl)-coumarin]	(−45.37) %	5.7 ± 0.7 mM
COc1ccc(-c2cc3c(O)cc(O)cc3oc2=O)cc1 [Compound 35, 5,7-Dihydroxy-3-(4-methoxyphenyl)-coumarin]	(−25.70) %	8.0 ± 0.4 mM

same assay, conditions: 10 mg/kg of bw per os, 7h

Compound	% Variation of glycemia	Blood glucose concentration
O=c1oc2ccc(O)cc2cc1-c1ccc(O)cc1 [Compound 17, 6-Hydroxy-3-(4-hydroxyphenyl)-coumarin]	(−48.56) %	5.4 ± 0.5 mM
COc1ccc(-c2cc3c(O)cc(O)cc3oc2=O)cc1 [Compound 35, 5,7-Dihydroxy-3-(4-methoxyphenyl)-coumarin]	(−31.27) %	7.4 ± 0.5 mM

same assay, conditions: 10 mg/kg of bw per os, 9h

Compound	% Variation of glycemia	Blood glucose concentration
O=c1oc2ccc(O)cc2cc1-c1ccc(O)cc1 [Compound 17, 6-Hydroxy-3-(4-hydroxyphenyl)-coumarin]	(−51.12) %	5.1 ± 0.4 mM
COc1ccc(-c2cc3c(O)cc(O)cc3oc2=O)cc1 [Compound 35, 5,7-Dihydroxy-3-(4-methoxyphenyl)-coumarin]	(−34.06) %	7.1 ± 0.3 mM

same assay, conditions: 30 mg/kg of bw per os, 0h

Compound	Blood glucose concentration
O=c1oc2ccc(O)cc2cc1-c1ccc(O)cc1 [Compound 17, 6-Hydroxy-3-(4-hydroxyphenyl)-coumarin]	10.8 ± 0.3 mM
COc1ccc(-c2cc3c(O)cc(O)cc3oc2=O)cc1 [Compound 35, 5,7-Dihydroxy-3-(4-methoxyphenyl)-coumarin]	10.5 ± 0.9 mM

same assay, conditions: 30 mg/kg of bw per os, 1.5h

Compound	% Variation of glycemia	Blood glucose concentration
O=c1oc2ccc(O)cc2cc1-c1ccc(O)cc1 [Compound 17, 6-Hydroxy-3-(4-hydroxyphenyl)-coumarin]	(−18.39) %	8.4 ± 1.0 mM
COc1ccc(-c2cc3c(O)cc(O)cc3oc2=O)cc1 [Compound 35, 5,7-Dihydroxy-3-(4-methoxyphenyl)-coumarin]	(−17.72) %	8.7 ± 1.0 mM

same assay, conditions: 30 mg/kg of bw per os, 3h

Compound	% Variation of glycemia	Blood glucose concentration
O=c1oc2ccc(O)cc2cc1-c1ccc(O)cc1 [Compound 17, 6-Hydroxy-3-(4-hydroxyphenyl)-coumarin]	(−33.55) %	6.9 ± 0.9 mM
COc1ccc(-c2cc3c(O)cc(O)cc3oc2=O)cc1 [Compound 35, 5,7-Dihydroxy-3-(4-methoxyphenyl)-coumarin]	(−31.65) %	7.2 ± 0.8 mM

same assay, conditions: 30 mg/kg of bw per os, 5h

Compound	% Variation of glycemia	Blood glucose concentration
O=c1oc2ccc(O)cc2cc1-c1ccc(O)cc1 [Compound 17, 6-Hydroxy-3-(4-hydroxyphenyl)-coumarin]	(−48.71) %	5.3 ± 0.7 mM
COc1ccc(-c2cc3c(O)cc(O)cc3oc2=O)cc1 [Compound 35, 5,7-Dihydroxy-3-(4-methoxyphenyl)-coumarin]	(−39.24) %	6.4 ± 1.0 mM

same assay, conditions: 30 mg/kg of bw per os, 7h

Compound	% Variation of glycemia	Blood glucose concentration
O=c1oc2ccc(O)cc2cc1-c1ccc(O)cc1 [Compound 17, 6-Hydroxy-3-(4-hydroxyphenyl)-coumarin]	(−48.71) %	5.3 ± 1.1 mM
COc1ccc(-c2cc3c(O)cc(O)cc3oc2=O)cc1 [Compound 35, 5,7-Dihydroxy-3-(4-methoxyphenyl)-coumarin]	(−44.94) %	5.8 ± 0.7 mM

same assay, conditions: 30 mg/kg of bw per os, 9h

Compound	% Variation of glycemia	Blood glucose concentration
O=c1oc2ccc(O)cc2cc1-c1ccc(O)cc1 [Compound 17, 6-Hydroxy-3-(4-hydroxyphenyl)-coumarin]	(−56.45) %	4.5 ± 0.6 mM
COc1ccc(-c2cc3c(O)cc(O)cc3oc2=O)cc1 [Compound 35, 5,7-Dihydroxy-3-(4-methoxyphenyl)-coumarin]	(−44.30) %	5.9 ± 0.6 mM

same assay, conditions: 100 mg/kg of bw per os, 0h

Compound	Blood glucose concentration
O=c1oc2ccc(O)cc2cc1-c1ccc(O)cc1 [Compound 17, 6-Hydroxy-3-(4-hydroxyphenyl)-coumarin]	10.4 ± 0.2 mM
COc1ccc(-c2cc3c(O)cc(O)cc3oc2=O)cc1 [Compound 35, 5,7-Dihydroxy-3-(4-methoxyphenyl)-coumarin]	10.6 ± 0.4 mM

same assay, conditions: 100 mg/kg of bw per os, 1.5h

Compound	% Variation of glycemia	Blood glucose concentration
O=c1oc2ccc(O)cc2cc1-c1ccc(O)cc1 [Compound 17, 6-Hydroxy-3-(4-hydroxyphenyl)-coumarin]	(−25.90) %	7.5 ± 1.2 mM
COc1ccc(-c2cc3c(O)cc(O)cc3oc2=O)cc1 [Compound 35, 5,7-Dihydroxy-3-(4-methoxyphenyl)-coumarin]	(−18.18) %	8.7 ± 0.5 mM

same assay, conditions: 100 mg/kg of bw per os, 3h

Compound	% Variation of glycemia	Blood glucose concentration
O=c1oc2ccc(O)cc2cc1-c1ccc(O)cc1 [Compound 17, 6-Hydroxy-3-(4-hydroxyphenyl)-coumarin]	(−37.71) %	6.3 ± 0.9 mM
COc1ccc(-c2cc3c(O)cc(O)cc3oc2=O)cc1 [Compound 35, 5,7-Dihydroxy-3-(4-methoxyphenyl)-coumarin]	(−40.44) %	6.3 ± 1.0 mM

same assay, conditions: 100 mg/kg of bw per os, 5h

Compound	% Variation of glycemia	Blood glucose concentration
O=c1oc2ccc(O)cc2cc1-c1ccc(O)cc1 [Compound 17, 6-Hydroxy-3-(4-hydroxyphenyl)-coumarin]	(−49.18) %	5.2 ± 0.5 mM
COc1ccc(-c2cc3c(O)cc(O)cc3oc2=O)cc1 [Compound 35, 5,7-Dihydroxy-3-(4-methoxyphenyl)-coumarin]	(−49.22) %	5.4 ± 0.6 mM

same assay, conditions: 100 mg/kg of bw per os, 7h

Compound	% Variation of glycemia	Blood glucose concentration
O=c1oc2ccc(O)cc2cc1-c1ccc(O)cc1 [Compound 17, 6-Hydroxy-3-(4-hydroxyphenyl)-coumarin]	(−53.44) %	4.7 ± 0.4 mM
COc1ccc(-c2cc3c(O)cc(O)cc3oc2=O)cc1 [Compound 35, 5,7-Dihydroxy-3-(4-methoxyphenyl)-coumarin]	(−55.17) %	4.8 ± 0.6 mM

same assay, conditions: 100 mg/kg of bw per os, 9h

Compound	% Variation of glycemia	Blood glucose concentration
O=c1oc2ccc(O)cc2cc1-c1ccc(O)cc1 [Compound 17, 6-Hydroxy-3-(4-hydroxyphenyl)-coumarin]	(−58.03) %	4.3 ± 0.4 mM
COc1ccc(-c2cc3c(O)cc(O)cc3oc2=O)cc1 [Compound 35, 5,7-Dihydroxy-3-(4-methoxyphenyl)-coumarin]	(−57.05) %	4.6 ± 0.7 mM
